Reference: PubChem BioAssay AID463229 (Broad Institute, 2010)
“And” between values parts separate entries of the source, which are not always exact repeats. Equal values may be shown once. The source made the active and inactive calls.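 Rule for the calls: active = compounds raising the signal whose fitted half-maximal concentration is at or below their top tested dose (cut at about 25 µM in these data); inconclusive = flat fit at 30 to 70% activity, or a poor fit; inactive = the rest.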

What follows are molecules tested on INS-1E rat beta cells, no cytokines, CellTiter-Glo ATP, 48 h (assay: ATP level change in INS-1E without cytokines, dose response, counter-screen for beta-cell apoptosis protection project, INS-1E rat cells, ATP luminescence, cherry pick (AID 463229)).

Compound | AC50
O=C(NCc1cccnc1)Nc1ccc([N+](=O)[O-])cc1 | 11.8 µM
Clc1ccc2c(N/N=C/c3cccc(Br)c3)ccnc2c1 | 10.7 µM
CC(C)(C)OC(=O)NCc1ccc(NC(=O)c2nc[nH]c2C(=O)NCCNC(=O)c2[nH]cnc2C(=O)Nc2ccc(CNC(=O)OC(C)(C)C)cc2)cc1 | 10.8 µM
Cc1ccc(/C=N/NC(=O)Cc2ccc(Cl)cc2)c(O)c1 | 12.3 µM
CCCOC(=O)c1ccc(-[n+]2c(-c3ccccc3)cc(-c3ccccc3)cc2-c2ccccc2)cc1 | 2.15 µM
CCCCCCCCNC(C)C(O)c1ccc(SC(C)C)cc1 (stereo unspecified) | 10.5 µM
CN(C)c1cc[n+](CC(=O)c2ccc(-c3ccccc3)cc2)cc1 | 1.22 µM
CCCC(=O)NC(c1ccc(Cl)cc1)c1ccc2cccnc2c1O (stereo unspecified) | 2.08 µM
O=C(CNC(=O)c1ccccc1)N/N=C/c1cc(Br)ccc1O | 15.2 µM
O=C(c1ccc(-c2ccc(Cl)cc2)o1)N1CCN(c2ccc([N+](=O)[O-])cc2Cl)CC1 | 4.92 µM
Cc1noc(-c2ccc(C(F)(F)F)cc2)c1NC(=O)Nc1ccc(Cl)cc1 | 7.7 µM
C/C(=N\NC(=O)COc1ccccc1-c1ccccc1)c1ccccn1 | 6.13 µM
COc1ccccc1/C=C/CN1CCC(n2nccc2NC(=O)CCc2ccccc2)CC1 | 8.85 µM
COc1ccc(NS(=O)(=O)c2ccc(N3CCCCC3)c(N)c2)cc1 | 4.75 µM
Cc1cc(Br)cc(/C=N/NC(=O)c2ccc3c(c2)OCO3)c1O | 7.43 µM
O=C(CSc1nnc(Cn2nnc3ccccc32)o1)N(Cc1ccc(F)cc1)c1ccccc1 | 7.94 µM
O=C(C#Cc1ccccc1)Nc1cccc(F)c1 | 11.8 µM
C/C(=N\NC(=O)c1ccc(NS(=O)(=O)c2cccs2)cc1)c1ccccn1 | 13.3 µM
CC(=O)c1cn(CCOc2cc(C)ccc2C)c2ccccc12 | 4.67 µM
CCCC(=O)NC(c1ccc(OC)cc1)c1ccc2cccnc2c1O (stereo unspecified) | 2.4 µM
O=C1C=C(Nc2ccc(O)cc2)C(=O)c2ccccc21 | 13.6 µM
Cc1ccc2cc(C3C(C#N)=C(N)Oc4c3ccc3cccnc43)c(=O)[nH]c2c1 (stereo unspecified) | 5.81 µM

Compound | AC50
Cc1[nH]n(-c2ccccc2)c(=O)c1/C=N\NC(=O)C1COc2ccccc2O1 (stereo unspecified) | 14 µM
CCC1=NN(C(=O)c2ccccc2O)C(O)(c2ccccc2)C1 (stereo unspecified) | 15.6 µM
CCOC(=O)c1cnc(-n2nc(C)cc2C)nc1NNc1cc(C)nc(-c2ccccc2)n1 | 7.19 µM
Cc1nc2ccccc2n1Cc1ccc(Br)cc1 | 5.63 µM
COC1=C(Nc2ccccc2)C(=O)c2ccccc2C1=O | 17.4 µM
Fc1ccc(C[n+]2c(-c3ccccc3)cc(-c3ccccc3)cc2-c2ccccc2)cc1 | 3.99 µM
c1ccc(-c2cccc(-c3ccccn3)n2)nc1 | 1.24 µM
O=C(c1cc2sccc2n1Cc1ccc(F)cc1)N1CCN(c2nc3ccccc3s2)CC1 | 5.82 µM
c1ccc(CNc2nc(-c3ccccn3)nc3ccccc23)cc1 | 7.68 µM
c1ccc(C2(Cn3ccc4ccccc43)OCCO2)cc1 | > 26 µM (inactive)
COc1cccc(C(=O)Oc2c(Br)cc(Br)cc2/C=N/NC(=O)c2cc(C)[nH]n2)c1 | 7.17 µM
COc1ccc(CCNc2cc(N3CCN(C(=O)c4ccccc4OC)CC3)ccc2[N+](=O)[O-])cc1OC | 8.74 µM
O=C(Nc1ccc(Br)c(C(F)(F)F)c1)c1ccc(C(F)(F)F)cc1 | 7.74 µM
Oc1ccc(Br)cc1/C=N/Nc1ccccn1 | 4.28 µM
C/C(=N\NC(=O)c1cc(C2CC2)nc2ccccc12)c1ccc(O)cc1O | 5.61 µM
CCCOc1ccc(/C=N/Nc2cc(N3CCOCC3)ncn2)c(O)c1 | 8.02 µM
CN1/C(=C\P(=O)(N(C)C)N(C)C)C(C)(C)c2ccccc21 | 4.86 µM
O=C(COc1ccc(Br)cc1)N1CCN(Cc2c[nH]c3ccccc23)CC1 | 3 µM
Cc1ccc(-c2nn(-c3ccccc3)cc2/C=N/NC(=O)c2ccc(Br)o2)cc1 | 0.569 µM
CCN1CCN(Cc2ccc(NC(=O)c3ccc(C)c(NC(=O)C(=O)c4c[nH]c5ccccc45)c3)cc2C(F)(F)F)CC1 | 13.8 µM and 7.23 µM
O=C(Nc1ccc(S(=O)(=O)N2CCOCC2)cc1)c1ccc([N+](=O)[O-])s1 | 6.8 µM
O=S(=O)(Nc1nc2ccccc2nc1Nc1ccc(N2CCOCC2)cc1)c1cc(Cl)ccc1Cl | 6.63 µM

Compound | AC50
CCc1ccc2[nH]c(=O)c(C3C(C#N)=C(N)Oc4c3ccc3cccnc43)cc2c1 (stereo unspecified) | 5.4 µM
CN1/C(=C\C(=S)Nc2ccccc2)C(C)(C)c2ccccc21 | 10.1 µM
C=C(C=O)C[C@@H]1C[C@H](O)C2OC3C[C@]4(C)OC5/C=C\CC6OC7C(CC=CCC6OC5CCCC4OC3CC2O1)OC1CC2OC3CC(=O)OC3C[C@@H](C)C[C@@]2(C)OC1C[C@@H]7C (stereo partly specified) | 3.79 µM
O=S1(=O)C=C(Sc2nnc(-c3ccccc3)o2)c2ccccc21 | 7.96 µM
COc1ccc(C(CCN2CCCCC2)c2c(OC)cc(OC)c3c(-c4ccccc4)cc(=O)oc23)cc1 (stereo unspecified) | 14.1 µM
Cc1ccc(C)c(N2CCN(C(=O)CCCOc3cc(=O)n(C)c4ccccc34)CC2)c1 | 2.7 µM
Cc1nc2c(=O)n(C)c(=O)nc-2n(C)n1 | 2.06 µM
Cc1ccc2c(c1)[nH]c1c(N3CCN(Cc4ccccc4)CC3)ncnc12 | 8.07 µM
CCCCCCOc1ccc(CN2CCN(C)CC2)cc1 | 11 µM
COc1ccccc1C(NC(C)=O)c1cc(Cl)c2cccnc2c1O (stereo unspecified) | 7.24 µM
COc1cccc(N2CCN(c3ncnc4c3[nH]c3ccc(F)cc34)CC2C)c1 (stereo unspecified) | 3.09 µM
Cc1cc(C(C)(C)C)cc(C)c1Cn1c2[n+](c3ccc(C(F)(F)F)cc31)CCCCC2 | 4.19 µM
O=C(N/N=C/c1c(O)ccc2ccccc12)c1ccc(Br)o1 | 4.83 µM
COc1ccccc1-n1c(=O)oc2ccc(Cl)cc2c1=O | 11.8 µM
Cc1ccc(S(=O)(=O)/N=C2/C=C(Sc3ncn[nH]3)C(=O)c3ccccc32)cc1 | 8.08 µM
C#CCOCCOCCOCCNc1nc(N2CCN(C(=O)CCCCCCCCCCNC(=O)[C@H](CCCCN)n3cc(C)nn3)CC2)nc(N2CCN(C(=O)CCCCCCCCCCNC(=O)[C@H](CCCN=C(N)N)n3cc(C[C@@H](C)CC)nn3)CC2)n1 | 7.85 µM
CCN1CCN(c2ccc(S(=O)(=O)N3CCCCC3)cc2NC(=O)c2ccc([N+](=O)[O-])o2)CC1 | 8.1 µM
COc1cccc(CN(C)C(=O)c2cc(COc3ccc4ncccc4c3)on2)c1 | 6.86 µM
CC(C)(C)Nc1nc(-c2ccccn2)nc2ccccc12 | 6.87 µM
Cc1oc2c(c1C(=O)N1CCOCC1)C(=O)c1ccccc1C2=O | 8.12 µM
COc1ccc(Cn2cc3c(-c4ccc(F)cc4)nnc-3c3cc(OC)c(OC)cc32)cc1 | 9.02 µM
C=C1CCc2c([nH]c3ccc(OCC(C)C)cc23)C1=O | 7.5 µM

Compound | AC50
COc1ccc(C2NCCc3c2[nH]c2ccccc32)cc1COc1ccc(F)cc1 (stereo unspecified) | 14 µM
C=CC(C)(C)c1c(O)c(CC=C(C)C)c(O)c2c(=O)c3ccc(O)c(O)c3oc12 | 5.39 µM
COc1ccc2nc3cc(Cl)ccc3c(Nc3cc(CN4CCCC4)c(O)c(CN4CCCC4)c3)c2n1 | 19.5 µM
COCc1ccc(O)c2ncccc12 | 15.9 µM
c1ccc2c(c1)ncn2CCCOc1ccc2c(c1)CCC2 | 7.74 µM
O=C(NCc1ccccc1)C1=C[C@H](c2csc3ccccc23)C[C@H](OCCCCO)O1 | 6.75 µM
C=C1C(=O)O[C@@H]2C[C@@H](C)[C@@H]3C=CC(=O)[C@@]3(C)[C@@H](OC(C)=O)[C@H]12 | 2.21 µM
CC1CCC(C(C)C)C(OC(=O)Cn2c(-c3ccc(F)cc3)[n+](C)c3ccccc32)C1 (stereo unspecified) | 4.49 µM
Cc1ccc2oc(-c3ccc(NC(=O)c4cccnc4)cc3)nc2c1 | 19.1 µM
O=C(N/N=C/c1cc([N+](=O)[O-])ccc1O)c1cccc(NC(=O)c2cccc(Cl)c2)c1 | 5.82 µM
CCCCn1c(/C=N/Nc2nc3ccccc3[nH]2)nc2ccccc21 | 14.1 µM
Cc1cc(-c2ccccc2)n(-c2cc(N/N=C/c3ccccc3O)ncn2)n1 | 7.17 µM
Cn1nccc1C(=O)NC1CCCc2c1cnn2-c1ccc(F)cc1F (stereo unspecified) | 2.48 µM
N#CC(C#N)=C(Nc1ccc(F)cc1)SCc1cccc(Br)c1 | 3.02 µM
O=S(=O)(c1ccc(Cl)cc1)N1CCN(Cc2ccc(O)c3ncccc23)CC1 | 7.13 µM
Oc1ccc2ccccc2c1N=Nc1nccs1 | 6.54 µM
COc1ccc(S(=O)(=O)Nc2cc(SCC(=O)O)c(O)c3ccccc23)cc1 | 8.19 µM
CCN1CCN(C(c2ccc(C(F)(F)F)cc2)c2ccc3cccnc3c2O)CC1 (stereo unspecified) | 4.72 µM
O=C(Oc1c(CN2CCOCC2)cc(Cl)c2cccnc12)c1ccc(F)cc1 | 14 µM
CC(=O)NC(C)c1cc(Cl)c2cccnc2c1O (stereo unspecified) | 10.7 µM
CNC(=O)c1cc(Oc2ccc(NC(=O)Nc3ccc(Cl)c(C(F)(F)F)c3)cc2)ccn1 | 7.39 µM
Cc1ccccc1-[n+]1c(-c2ccccc2)cc(-c2ccccc2)cc1-c1ccccc1 | 2.2 µM

Compound | AC50
Clc1ccc(OCCN2CCN(c3ncnc4sccc34)CC2)cc1 | 0.726 µM
c1ccc2c(CN3CCCCCCC3)c[nH]c2c1 | 4.48 µM
CCOC(=O)N1CCN(S(=O)(=O)c2ccc(C(=O)NNc3nc4cc(C)cc(C)c4s3)cc2)CC1 | 6.01 µM
Cc1cc(C)nc(SCc2ccc(C(=O)N/N=C/c3cccc(O)c3O)cc2)n1 | 8.06 µM
CC(C)n1cnc2c(NCc3ccccc3)cc(N[C@H](C)CO)cc21 | 13.7 µM
C#Cc1ccc([C@@H]2C=C(C(=O)N3CCN(Cc4ccccc4)CC3)O[C@H](OCCCCO)C2)cc1 | 2.13 µM
CC(=O)Nc1ccc(Nc2c3ccccc3nc3ccccc23)cc1 | 7.08 µM
CNc1nc(N/N=C/c2cc3c(cc2[N+](=O)[O-])OCO3)nc(Nc2ccccc2)n1 | 14.2 µM
O=C(c1cnc(N2CCN(c3ccccn3)CC2)c2ccccc12)N1CCN(c2cccc(Cl)c2)CC1 | 7.59 µM
COc1ccccc1C(=O)Nc1nc2ccccc2[nH]1 | 1.22 µM
CCN(CC)c1ccc(/C=N/NC(=O)c2cccc(S(=O)(=O)N3CCOCC3)c2)c(O)c1 | 2.12 µM
COc1cccc(/C=N/NC(=O)c2cc3cc([N+](=O)[O-])ccc3s2)c1O | 7.08 µM
Cc1ccc(/C=N/Nc2ccnc3cc(Cl)ccc23)c(C)c1 | 13.4 µM
O=S(=O)(/C(=C/c1ccc(C(F)(F)F)cc1)c1nc2ccccc2[nH]1)c1ccccc1 | 5.45 µM
Cc1cc(C(=O)N/N=C/c2cc(N=Nc3ccccc3)ccc2O)n[nH]1 | 3.23 µM
O=C(N/N=C/c1c(O)ccc2ccccc12)c1[nH]ncc1Br | 2.16 µM
CCCCCCCCCCOC(=O)Cn1c(COc2cccc(OC)c2)[n+](C)c2ccccc21 | 3.47 µM
Cc1cc(N2CCC(C)CC2)nc(NCc2ccccc2)n1 | 12.3 µM
